Experiments:
[1] = system: bicistronic HCV replicon (replicon RNA, GenBank Accession No. AJ242654); assay: HCV Replicon Assay; assay type: cell-based; conditions: Hepatitis C virus, 72 h, read-out: Replicon IC50

Structure (SMILES)	melting point	IC50 [1]
Cc1cc2c(cc1F)c(C(N)=O)c(-c1ccc(S(=O)(=O)NC(C)(C)C)cn1)n2-c1ccccc1 [compound 1116, 2-[5-(tert-butylsulfamoyl)pyridin-2-yl]-5-fluoro-6-methyl-1-phenyl-1H-indole-3-carboxamide]	241.2 to 242.5 °C	< 500 nM
Cc1cc2c(cc1Br)c(C#N)c(-c1ccc(S(=O)(=O)N[C@@H](C)C(F)(F)F)cn1)n2C1CCCC1 [compound 675, 6-(5-bromo-3-cyano-1-cyclopentyl-6-methyl-1H-indol-2-yl)-N-[(2S)-1,1,1-trifluoropropan-2-yl]pyridine-3-sulfonamide]	204 to 204.5 °C	< 500 nM
CC[C@H](NS(=O)(=O)c1ccc(-c2c(C#N)c3cc(F)c(C)cc3n2C2CCC2)nc1)C(F)(F)F [compound 826, 6-(3-cyano-1-cyclobutyl-5-fluoro-6-methyl-1H-indol-2-yl)-N-[(2S)-1,1,1-trifluorobutan-2-yl]pyridine-3-sulfonamide]	212 to 217 °C	< 500 nM
Cc1cc(F)c2c(C#N)c(-c3ccc(S(=O)(=O)NC(C)(C)C(F)(F)F)cn3)n(C3CCCC3)c2c1 [compound 626, 6-(3-cyano-1-cyclopentyl-4-fluoro-6-methyl-1H-indol-2-yl)-N-(1,1,1-trifluoro-2-methylpropan-2-yl)pyridine-3-sulfonamide]	218 to 223 °C	< 500 nM
CC(C)NS(=O)(=O)c1ccc(-c2c(C#N)c3cc(OC(F)F)ccc3n2C2CCCC2)nc1 [compound 21, 6-[3-cyano-1-cyclopentyl-5-(difluoromethoxy)-1H-indol-2-yl]-N-(propan-2-yl)pyridine-3-sulfonamide]	177 to 179 °C	< 500 nM
Cc1ccc2c(c1F)c(C#N)c(-c1ccc(S(=O)(=O)N[C@@H](C)C(F)(F)F)cn1)n2C1CCCC1 [compound 615, 6-(3-cyano-1-cyclopentyl-4-fluoro-5-methyl-1H-indol-2-yl)-N-[(2S)-1,1,1-trifluoropropan-2-yl]pyridine-3-sulfonamide]	186 to 197 °C	< 500 nM
CCc1cc2c(cc1F)c(C(N)=O)c(-c1ccc(S(=O)(=O)N[C@@H](C)C(F)(F)F)cn1)n2-c1ccc(C(F)(F)F)cc1 [compound 1022, 6-ethyl-5-fluoro-1-[4-(trifluoromethyl)phenyl]-2-(5-{[(2S)-1,1,1-trifluoropropan-2-yl]sulfamoyl}pyridin-2-yl)-1H-indole-3-carboxamide]	253 to 259 °C	< 500 nM
Cc1ccc2c(C#N)c(-c3ncc(S(=O)(=O)NC(CF)CF)cn3)n(C3CCC3)c2c1 [compound 132, 2-(3-cyano-1-cyclobutyl-6-methyl-1H-indol-2-yl)-N-(1,3-difluoropropan-2-yl)pyrimidine-5-sulfonamide]	236 to 238 °C	< 500 nM
CC(C)NS(=O)(=O)c1cnc(-c2c(C#N)c3cc(F)ccc3n2C2CCC2)nc1 [compound 416, 2-(3-cyano-1-cyclobutyl-5-fluoro-1H-indol-2-yl)-N-(propan-2-yl)pyrimidine-5-sulfonamide]	195 to 200 °C	< 500 nM
Cc1c(F)cc2c(C#N)c(-c3ccc(S(=O)(=O)NC(CF)CF)cn3)n(C3CCCC3)c2c1F [compound 509, 6-(3-cyano-1-cyclopentyl-5,7-difluoro-6-methyl-1H-indol-2-yl)-N-(1,3-difluoropropan-2-yl)pyridine-3-sulfonamide]	199 to 203 °C	< 500 nM
Cc1cc2c(cc1F)c(C#N)c(-c1ccc(S(=O)(=O)N[C@@H](C)C(F)(F)F)cn1)n2-c1cscc1C [compound 1056, 6-[3-cyano-5-fluoro-6-methyl-1-(4-methylthiophen-3-yl)-1H-indol-2-yl]-N-[(2S)-1,1,1-trifluoropropan-2-yl]pyridine-3-sulfonamide]	223.2 to 227.1 °C	< 500 nM
CC(C)NS(=O)(=O)c1cnc(-c2c(C(N)=O)c3ccc(Cl)cc3n2C2CCC2)nc1 [compound 780, 6-chloro-1-cyclobutyl-2-[5-(propan-2-ylsulfamoyl)pyrimidin-2-yl]-1H-indole-3-carboxamide]	251 to 253 °C	< 500 nM
Cc1cc(F)c2c(C#N)c(-c3ccc(S(=O)(=O)N[C@@H](C)C(F)(F)F)cn3)n(C3CCCC3)c2c1 [compound 625, 6-(3-cyano-1-cyclopentyl-4-fluoro-6-methyl-1H-indol-2-yl)-N-[(2S)-1,1,1-trifluoropropan-2-yl]pyridine-3-sulfonamide]	207 to 211 °C	< 500 nM
Cc1c(F)cc2c(C#N)c(-c3ncc(S(=O)(=O)NC(CF)CF)cn3)n(C3CCCC3)c2c1F [compound 656, 2-(3-cyano-1-cyclopentyl-5,7-difluoro-6-methyl-1H-indol-2-yl)-N-(1,3-difluoropropan-2-yl)pyrimidine-5-sulfonamide]	230 to 234 °C	< 500 nM
CCCn1c(-c2ncc(S(=O)(=O)NC(CF)CF)cn2)c(C#N)c2ccc(OC(F)F)cc21 [compound 232, 2-[3-cyano-6-(difluoromethoxy)-1-propyl-1H-indol-2-yl]-N-(1,3-difluoropropan-2-yl)pyrimidine-5-sulfonamide]	177 to 179 °C	< 500 nM
C[C@H](NS(=O)(=O)c1ccc(-c2c(C#N)c3ccc(F)cc3n2C2CCCC2)nc1)C(F)(F)F [compound 396, 6-(3-cyano-1-cyclopentyl-6-fluoro-1H-indol-2-yl)-N-[(2S)-1,1,1-trifluoropropan-2-yl]pyridine-3-sulfonamide]	132 to 133 °C	< 500 nM
CCc1cc2c(cc1F)c(C#N)c(-c1ncc(S(=O)(=O)N[C@@H](C)C(F)(F)F)cc1C)n2-c1ncccn1 [compound 867, 6-[3-cyano-6-ethyl-5-fluoro-1-(pyrimidin-2-yl)-1H-indol-2-yl]-5-methyl-N-[(2S)-1,1,1-trifluoropropan-2-yl]pyridine-3-sulfonamide]	192 to 198 °C	< 500 nM
Cc1c(F)cc2c(c1F)c(C#N)c(-c1ccc(S(=O)(=O)N[C@@H](C)C(F)(F)F)cn1)n2C1CCC1 [compound 555, 6-(3-cyano-1-cyclobutyl-4,6-difluoro-5-methyl-1H-indol-2-yl)-N-[(2S)-1,1,1-trifluoropropan-2-yl]pyridine-3-sulfonamide]	181 to 186 °C	< 500 nM
N#Cc1c(-c2ccc(S(=O)(=O)NC(CF)CF)cn2)n(C2CCCC2)c2c(F)cccc12 [compound 87, 6-(3-cyano-1-cyclopentyl-7-fluoro-1H-indol-2-yl)-N-(1,3-difluoropropan-2-yl)pyridine-3-sulfonamide]	128 to 129 °C	< 500 nM
C[C@H](NS(=O)(=O)c1ccc(-c2c(C#N)c3cc(Cl)ccc3n2C2CCCCC2)nc1)C(F)(F)F [compound 462, 6-(5-chloro-3-cyano-1-cyclohexyl-1H-indol-2-yl)-N-[(2S)-1,1,1-trifluoropropan-2-yl]pyridine-3-sulfonamide]	220 to 222 °C	< 500 nM
Cc1cc2c(cc1F)c(C#N)c(-c1ccc(S(=O)(=O)N[C@@H](C)C(F)(F)F)cn1)n2-c1ncccc1C [compound 739, 6-[3-cyano-5-fluoro-6-methyl-1-(3-methylpyridin-2-yl)-1H-indol-2-yl]-N-[(2S)-1,1,1-trifluoropropan-2-yl]pyridine-3-sulfonamide]	219 to 221 °C	< 500 nM
CSc1ccc2c(C#N)c(-c3ncc(S(=O)(=O)NC(CF)CF)cn3)n(C3CCC3)c2c1 [compound 162, 2-[3-cyano-1-cyclobutyl-6-(methylsulfanyl)-1H-indol-2-yl]-N-(1,3-difluoropropan-2-yl)pyrimidine-5-sulfonamide]	199 to 201 °C	< 500 nM
CC(C)NS(=O)(=O)c1cnc(-c2c(C#N)c3cc(F)ccc3n2C2CCCC2)nc1 [compound 603, 2-(3-cyano-1-cyclopentyl-5-fluoro-1H-indol-2-yl)-N-(propan-2-yl)pyrimidine-5-sulfonamide]	217 to 222 °C	< 500 nM
Cc1ccnc(-n2c(-c3ccc(S(=O)(=O)N[C@@H](C)C(F)(F)F)cn3)c(C(N)=O)c3cc(F)c(C)cc32)n1 [compound 905, 5-fluoro-6-methyl-1-(4-methylpyrimidin-2-yl)-2-(5-{[(2S)-1,1,1-trifluoropropan-2-yl]sulfamoyl}pyridin-2-yl)-1H-indole-3-carboxamide]	205 to 210 °C	< 500 nM
CC(C)NS(=O)(=O)c1ccc(-c2c(C#N)c3ccc(OC(F)(F)F)cc3n2C(C)C)nc1 [compound 12, 6-[3-cyano-1-(propan-2-yl)-6-(trifluoromethoxy)-1H-indol-2-yl]-N-(propan-2-yl)pyridine-3-sulfonamide]	160 to 162 °C	500 to 2000 nM
CC(C)(C)NS(=O)(=O)c1ccc(-c2c(C#N)c3cc(OC(F)F)ccc3n2C2CCC2)nc1 [compound 20, N-tert-butyl-6-[3-cyano-1-cyclobutyl-5-(difluoromethoxy)-1H-indol-2-yl]pyridine-3-sulfonamide]	167 to 170 °C	500 to 2000 nM
CC(C)Oc1ccc2c(C#N)c(-c3ccc(NS(C)(=O)=O)nn3)n(C3CCC3)c2c1 [compound 275, N-{6-[3-cyano-1-cyclobutyl-6-(propan-2-yloxy)-1H-indol-2-yl]pyridazin-3-yl}methanesulfonamide]	225 to 227 °C	2000 to 5000 nM
C[C@H](NS(=O)(=O)c1ccc(-c2c(C(N)=O)c3cc(F)c(Cl)cc3n2C2CCC2)nc1)C(F)(F)F [compound 736, 6-chloro-1-cyclobutyl-5-fluoro-2-(5-{[(2S)-1,1,1-trifluoropropan-2-yl]sulfamoyl}pyridin-2-yl)-1H-indole-3-carboxamide]	241 to 243 °C	< 500 nM
Cc1ccc2c(C#N)c(-c3ccc(S(=O)(=O)NC(C)(C)C(F)(F)F)cn3)n(C3CCCC3)c2c1F [compound 579, 6-(3-cyano-1-cyclopentyl-7-fluoro-6-methyl-1H-indol-2-yl)-N-(1,1,1-trifluoro-2-methylpropan-2-yl)pyridine-3-sulfonamide]	203 to 205 °C	< 500 nM

Source: patent US8735414B2 (priority 2009, dated 2014)
